ChEMBL document CHEMBL1137492, “Phenylethyl-substituted pyrimido[2,1-f]purinediones and related compounds: structure-activity relationships as adenosine A(1) and A(2A) receptor ligands” (Bioorg Med Chem, 2007)

Tests used:
Adenosine receptor A2b = target: T1, Adenosine receptor A2b (Homo sapiens, UniProt P29275); experiment: Displacement of [3H]ZM-241385 from human adenosine A2B receptor expressed in CHO cells; format: cell-based
T1 sequence (P29275 whole entry): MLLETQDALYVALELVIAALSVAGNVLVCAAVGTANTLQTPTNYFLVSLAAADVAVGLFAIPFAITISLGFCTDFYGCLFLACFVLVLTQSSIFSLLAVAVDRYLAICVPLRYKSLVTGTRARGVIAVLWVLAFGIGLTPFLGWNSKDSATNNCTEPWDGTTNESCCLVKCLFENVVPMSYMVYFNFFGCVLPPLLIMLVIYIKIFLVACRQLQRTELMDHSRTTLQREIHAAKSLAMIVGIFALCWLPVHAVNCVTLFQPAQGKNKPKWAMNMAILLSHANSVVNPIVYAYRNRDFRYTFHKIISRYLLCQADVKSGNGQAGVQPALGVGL

Adenosine receptor A1 [1] = target: T2, Adenosine receptor A1 (Rattus norvegicus, UniProt P25099); experiment: Displacement of [3H]CCPA from adenosine A1 receptor in rat brain cortical membrane; format: cell membranes
T2 sequence (P25099 whole entry): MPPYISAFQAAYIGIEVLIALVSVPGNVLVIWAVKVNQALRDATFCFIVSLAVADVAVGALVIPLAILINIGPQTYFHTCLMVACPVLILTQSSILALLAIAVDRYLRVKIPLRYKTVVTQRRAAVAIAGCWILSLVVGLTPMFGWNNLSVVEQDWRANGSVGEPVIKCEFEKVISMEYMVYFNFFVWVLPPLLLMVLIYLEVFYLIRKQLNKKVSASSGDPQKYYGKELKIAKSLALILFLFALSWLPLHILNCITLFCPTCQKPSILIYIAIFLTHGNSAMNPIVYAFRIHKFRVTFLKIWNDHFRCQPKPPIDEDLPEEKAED

Adenosine receptor A3 [2] = target: T3, Adenosine receptor A3 (Homo sapiens, UniProt P0DMS8); experiment: Displacement of [3H]PSB11 from human adenosine A3 receptor expressed in CHO cells; format: cell-based
T3 sequence (P0DMS8 whole entry): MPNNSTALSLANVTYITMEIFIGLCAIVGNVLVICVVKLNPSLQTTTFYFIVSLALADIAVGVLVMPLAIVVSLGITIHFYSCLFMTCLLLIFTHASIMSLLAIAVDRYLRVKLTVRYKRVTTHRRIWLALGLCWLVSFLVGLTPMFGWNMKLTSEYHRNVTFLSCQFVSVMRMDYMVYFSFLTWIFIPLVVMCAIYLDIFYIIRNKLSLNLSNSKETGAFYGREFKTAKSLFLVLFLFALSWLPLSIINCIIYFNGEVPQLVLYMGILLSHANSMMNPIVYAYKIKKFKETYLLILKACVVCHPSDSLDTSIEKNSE

Adenosine receptor A2a [3] = target: Adenosine receptor A2a (Rattus norvegicus, UniProt P30543)
[4] = target: Adenosine receptor A2a (Rattus norvegicus) (UniProt P30543); experiment: Displacement of [3H]MSX2 from adenosine A2A receptor in rat brain striatal membrane at 25 uM; format: cell membranes
Adenosine receptor A1 [5] = target: T4, Adenosine receptor A1 (Homo sapiens, UniProt P30542); experiment: Displacement of [3H]CCPA from human adenosine A1 receptor expressed in CHO cells; format: cell-based
T4 sequence (P30542 whole entry): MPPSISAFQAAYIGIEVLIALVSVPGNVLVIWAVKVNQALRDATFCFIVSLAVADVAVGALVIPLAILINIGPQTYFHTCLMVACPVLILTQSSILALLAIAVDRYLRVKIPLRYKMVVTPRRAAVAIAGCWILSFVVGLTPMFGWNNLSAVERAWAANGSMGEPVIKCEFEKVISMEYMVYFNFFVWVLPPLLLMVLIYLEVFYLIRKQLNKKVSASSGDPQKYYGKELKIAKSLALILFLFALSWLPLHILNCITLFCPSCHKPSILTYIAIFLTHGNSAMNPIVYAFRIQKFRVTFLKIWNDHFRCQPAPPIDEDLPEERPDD

[6] = target: T5, Adenosine receptor A2b (Homo sapiens) (UniProt P29275); experiment: Displacement of [3H]ZM-241385 from human adenosine A2B receptor expressed in CHO cells at 10 uM; format: cell-based
T5 sequence (whole entry): T1 sequence (P29275 whole entry)

Adenosine receptor A3 [7] = target: T3, Adenosine receptor A3; experiment: (§1) Displacement of [3H]PSB11 from human adenosine A3 receptor expressed in CHO cells at 10 uM; format: cell-based
[8] = target: T6, Adenosine receptor A1 (Homo sapiens) (UniProt P30542); experiment: Displacement of [3H]CCPA from human adenosine A1 receptor expressed in CHO cells at 25 uM; format: cell-based
T6 sequence (whole entry): T4 sequence (P30542 whole entry)

Mus musculus [9] = experiment: Toxicity in Albino F1 mouse assessed as tonic extension followed by death at 30 mg/kg after 0.5 hrs; format: organism-based; set-up: dose 30 mg/kg; conditions: in vivo
[10] = target: Adenosine receptor A1 (Rattus norvegicus) (UniProt P25099); experiment: Displacement of [3H]CCPA from adenosine A1 receptor in rat brain cortical membrane at 25 uM
Adenosine receptor A2a [11] = target: Adenosine receptor A2a (Homo sapiens, UniProt P29274); experiment: Displacement of [3H]MSX2 from human adenosine A2A receptor expressed in CHO cells; format: cell-based
[12] = target: T5, Adenosine receptor A2b (Homo sapiens); experiment: Displacement of [3H]PSB298 from human adenosine A2B receptor expressed in CHO cells at 10 uM; format: cell-based
Mus musculus [13] = experiment: Toxicity in Albino F1 mouse assessed as continuous seizure at 100 mg/kg after 0.5 hrs; format: organism-based; set-up: dose 100 mg/kg; conditions: in vivo
[14] = target: Adenosine receptor A2a (Rattus norvegicus) (UniProt P30543); experiment: Displacement of [3H]MSX2 from adenosine A2A receptor in rat brain striatal membrane at 10 uM; format: cell membranes
Mus musculus [15] = experiment: Toxicity in Albino F1 mouse assessed as continuous seizure followed by death at 100 mg/kg after 0.5 hrs; format: organism-based; set-up: dose 100 mg/kg; conditions: in vivo
[16] = target: Adenosine receptor A1 (Rattus norvegicus) (UniProt P25099); experiment: Displacement of [3H]CCPA from adenosine A1 receptor in rat brain cortical membrane at 10 uM
Mus musculus [17] = experiment: Toxicity in Albino F1 mouse assessed as tonic extension followed by death at 300 mg/kg after 0.5 hrs; format: organism-based; set-up: dose 300 mg/kg; conditions: in vivo
[18] = target: T7, Adenosine receptor A3 (Homo sapiens) (UniProt P0DMS8); experiment: as §1; format: cell-based
T7 sequence (whole entry): T3 sequence (P0DMS8 whole entry)

Mus musculus [19] = experiment: Toxicity in Albino F1 mouse assessed as death following tonic extension at 300 mg/kg after 0.5 hrs; conditions: in vivo

Sequence of Adenosine receptor A2a (Rattus norvegicus, UniProt P30543) (P30543 whole entry): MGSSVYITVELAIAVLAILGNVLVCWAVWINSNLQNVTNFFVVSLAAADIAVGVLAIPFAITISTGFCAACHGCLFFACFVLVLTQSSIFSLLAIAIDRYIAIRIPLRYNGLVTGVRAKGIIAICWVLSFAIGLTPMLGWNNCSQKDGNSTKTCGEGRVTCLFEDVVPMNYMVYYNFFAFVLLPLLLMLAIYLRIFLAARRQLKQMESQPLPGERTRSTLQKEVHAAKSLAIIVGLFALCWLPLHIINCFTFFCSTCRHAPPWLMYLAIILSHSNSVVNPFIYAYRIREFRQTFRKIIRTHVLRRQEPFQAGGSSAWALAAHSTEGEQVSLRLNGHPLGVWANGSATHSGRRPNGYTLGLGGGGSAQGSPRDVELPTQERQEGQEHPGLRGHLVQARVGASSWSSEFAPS
Sequence of Adenosine receptor A2a (Rattus norvegicus) (P30543 whole entry): as above
Sequence of Adenosine receptor A2a (Homo sapiens, UniProt P29274) (P29274 whole entry): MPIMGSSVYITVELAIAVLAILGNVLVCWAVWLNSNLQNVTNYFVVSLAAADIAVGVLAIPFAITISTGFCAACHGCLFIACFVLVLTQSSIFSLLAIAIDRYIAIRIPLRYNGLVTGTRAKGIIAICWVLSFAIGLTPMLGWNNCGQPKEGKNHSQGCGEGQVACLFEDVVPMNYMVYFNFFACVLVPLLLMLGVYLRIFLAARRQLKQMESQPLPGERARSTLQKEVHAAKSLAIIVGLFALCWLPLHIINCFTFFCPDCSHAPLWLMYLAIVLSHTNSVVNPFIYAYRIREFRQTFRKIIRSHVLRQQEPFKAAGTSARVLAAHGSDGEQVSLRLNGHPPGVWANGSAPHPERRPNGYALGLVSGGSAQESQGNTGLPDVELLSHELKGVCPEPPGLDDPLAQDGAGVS

Structure (SMILES)	Ki (Adenosine receptor A1 [1])	Ki (Adenosine receptor A3 [2])	Ki (Adenosine receptor A2a [3])	further results
Cn1c(=O)c2c(nc3n2CCCN3CCc2ccccn2)n(C)c1=O	> 25 µM	> 10 µM	> 25 µM	Ki (Adenosine receptor A2b): 13.4 µM; Activity [4]: 37%
Cn1c(=O)c2c(nc3n2CCCN3CCc2ccccc2)n(C)c1=O	> 25 µM	> 10 µM	0.32 µM	Ki (Adenosine receptor A1 [5]): > 10 µM; Ki (Adenosine receptor A2b): 10 µM; Activity [6]: 57%; Inhibition (Adenosine receptor A3 [7]): 20%; Activity [8]: 44%; Activity (Mus musculus [9]): Toxic; Activity [10]: 31%; Ki (Adenosine receptor A2a [11]): 2.89 µM
Cn1c(=O)c2c(nc3n2CCCN3CCNCc2ccccc2)n(C)c1=O	7.55 µM		20 µM	Ki (Adenosine receptor A2b): > 10 µM; Activity [12]: 27%
Cn1c(=O)c2c(nc3n2CCCN3CCCc2ccccc2)n(C)c1=O	1.99 µM		1.1 µM	Activity (Mus musculus [13]): Toxic
Cn1c(=O)c2c(nc3n2CCCN3CCOC(=O)Nc2ccc(F)cc2)n(C)c1=O	> 10 µM		≥ 10 µM	Activity [14]: 42%; Activity (Mus musculus [15]): Toxic; Activity [16]: 13%
CCCn1c(=O)c2c(nc3n2CCCN3CCc2ccccc2)n(CCC)c1=O	0.62 µM	3.66 µM	0.86 µM	Ki (Adenosine receptor A2b): 0.59 µM
Cn1c(=O)c2c(nc3n2CCCN3CCc2c[nH]c3ccccc23)n(C)c1=O	25 µM	> 10 µM	0.33 µM	Ki (Adenosine receptor A1 [5]): > 25 µM; Ki (Adenosine receptor A2b): 10 µM; Activity [6]: 56%; Inhibition (Adenosine receptor A3 [7]): 21%; Activity [8]: 21%; Ki (Adenosine receptor A2a [11]): 4.56 µM
COc1ccc(CCN2CCCn3c2nc2c3c(=O)n(C)c(=O)n2C)cc1	3.85 µM		0.37 µM	
Cn1c(=O)c2c(nc3n2CCCN3CCc2ccc(Cl)cc2)n(C)c1=O	6.47 µM		0.48 µM	Activity (Mus musculus [17]): Toxic
CC(=O)OC(CN1CCCn2c1nc1c2c(=O)n(C)c(=O)n1C)c1ccccc1 (configuration not stated)			1 µM	Activity [10]: 50%
Cn1c(=O)c2c(nc3n2CCCN3CCOCc2ccccc2)n(C)c1=O	3.16 µM		3.69 µM	
CC(=O)OC(c1ccccc1)C(C)N1CCCn2c1nc1c2c(=O)n(C)c(=O)n1C (configuration not stated)			1.22 µM	
CC(=O)Nc1ccc(OCCN2CCCn3c2nc2c3c(=O)n(C)c(=O)n2C)cc1	10 µM	> 1 µM	2.02 µM	Activity [16]: 41%
Cn1c(=O)c2c(nc3n2CCCN3CCOC(=O)Nc2ccc(Cl)cc2)n(C)c1=O	> 10 µM		> 10 µM	Activity (Mus musculus [19]): Toxic; Activity [14]: 32%; Activity [16]: 24%
Cn1c(=O)c2c(nc3n2CCCN3CCOC(=O)Nc2ccccc2)n(C)c1=O	> 10 µM		> 10 µM	Activity [14]: 35%; Activity [16]: 3%
Cn1c(=O)c2c(nc3n2CCCN3CCOc2ccc(Cl)cc2Cl)n(C)c1=O	3.5 µM		1.09 µM	
CC(C(O)c1ccccc1)N1CCCn2c1nc1c2c(=O)n(C)c(=O)n1C (configuration not stated)	25 µM		2.16 µM	Activity [10]: 45%
Cn1c(=O)c2c(nc3n2CCCN3CCOCc2ccc(F)cc2)n(C)c1=O	3.68 µM		3.05 µM	
Cn1c(=O)c2c(nc3n2CCCN3CCc2ccc(O)cc2)n(C)c1=O	25 µM	> 10 µM		Ki (Adenosine receptor A1 [5]): ≥ 25 µM; Inhibition (Adenosine receptor A3 [7]): 9%; Activity [8]: 34%

Continued, in another order:

Ki (Adenosine receptor A1 [1])	Ki (Adenosine receptor A3 [2])	Ki (Adenosine receptor A2a [3])	Structure (SMILES)	further results
≥ 25 µM		1.21 µM	COc1ccc(CCN2CCCn3c2nc2c3c(=O)n(C)c(=O)n2C)cc1OC	Activity [10]: 33%
1.79 µM	> 1 µM	0.9 µM	CCCn1c(=O)c2c(nc3n2CCCN3CCc2c[nH]c3ccccc23)n(CCC)c1=O	
10 µM	> 1 µM	4.6 µM	Cc1ccc(OCCN2CCCn3c2nc2c3c(=O)n(C)c(=O)n2C)cc1	Activity [16]: 41%
10 µM	> 1 µM	4.29 µM	Cn1c(=O)c2c(nc3n2CCCN3CCOC/C=C/c2ccccc2)n(C)c1=O	Activity [16]: 36%
4.22 µM	> 1 µM	25 µM	Cn1c(=O)c2c(nc3n2CCCN3CCOc2ccc(Cl)cc2)n(C)c1=O	Ki (Adenosine receptor A2b): 10 µM; Activity [6]: 44%; Activity [18]: 45%; Activity [4]: 49%
> 10 µM		> 10 µM	Cn1c(=O)c2c(nc3n2CCCN3CCOC(=O)Nc2cccc(Cl)c2)n(C)c1=O	Activity [14]: 33%; Activity [16]: 10%
10 µM		1.33 µM	Cn1c(=O)c2c(nc3n2CCCN3CCOCc2ccc(Cl)cc2)n(C)c1=O	Activity [16]: 48%
0.82 µM	> 1 µM	1.33 µM	CCCn1c(=O)c2c(nc3n2CCCN3CCc2ccc(OC)c(OC)c2)n(CCC)c1=O	
25 µM		1.11 µM	Cn1c(=O)c2c(nc3n2CCCN3CC(O)c2ccccc2)n(C)c1=O (configuration not stated)	Activity [10]: 49%
2.63 µM		14 µM	Cn1c(=O)c2c(nc3n2CCCN3CCNCc2ccc(F)cc2)n(C)c1=O	
